From PubChem BioAssay AID1963425 (Molecular Pharmacology Branch, DTP, NCI, 2024)

Tested on: 323965-272-R-J2-PDC complex spheroid growth, % test/control
Assay: Anticancer human tumor 323965-272-R-J2-PDC patient-derived pancreatic carcinoma cell line growth inhibition [Asc]
Details: for IC50: curve of first compound; for viability, T/C: stronger effect = lower value; active = viability on the fitted dose curve at most 10% of control; inactive = the rest
Summary of the method: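 Concentration series start at each agent's clinical Cmax, or at 10 microM when none is established, and drop in half-log steps; agents are applied alone or together to complex spheroids built with HUVEC and hMSC.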

[1] = second compound 0.00316 µM, first compound 0.0316 µM
[2] = second compound 0.00316 µM, first compound 0.1 µM
[3] = second compound 0.00316 µM, first compound 0.316 µM
[4] = second compound 0.00316 µM, first compound 1 µM
[5] = second compound 0.01 µM, first compound 0.0316 µM
[6] = second compound 0.01 µM, first compound 0.1 µM
[7] = second compound 0.01 µM, first compound 0.316 µM
[8] = second compound 0.01 µM, first compound 1 µM
[9] = second compound 0.0316 µM, first compound 0.0316 µM
[10] = second compound 0.0316 µM, first compound 0.1 µM
[11] = second compound 0.0316 µM, first compound 0.316 µM
[12] = second compound 0.0316 µM, first compound 1 µM
[13] = second compound 0.1 µM, first compound 0.0316 µM
[14] = second compound 0.1 µM, first compound 0.1 µM
[15] = second compound 0.1 µM, first compound 0.316 µM
[16] = second compound 0.1 µM, first compound 1 µM
[17] = second compound 0.316 µM, first compound 0.0316 µM
[18] = second compound 0.316 µM, first compound 0.1 µM
[19] = second compound 0.316 µM, first compound 0.316 µM
[20] = second compound 0.316 µM, first compound 1 µM
[21] = second compound 1 µM, first compound 0.0316 µM
[22] = second compound 1 µM, first compound 0.1 µM
[23] = second compound 1 µM, first compound 0.316 µM
[24] = second compound 1 µM, first compound 1 µM
[25] = second compound 0.00316 µM, first compound 0.00316 µM
[26] = second compound 0.00316 µM, first compound 0.01 µM
[27] = second compound 0.01 µM, first compound 0.00316 µM
[28] = second compound 0.01 µM, first compound 0.01 µM
[29] = second compound 0.0316 µM, first compound 0.00316 µM
[30] = second compound 0.0316 µM, first compound 0.01 µM
[31] = second compound 0.1 µM, first compound 0.00316 µM
[32] = second compound 0.1 µM, first compound 0.01 µM
[33] = second compound 0.316 µM, first compound 0.00316 µM
[34] = second compound 0.316 µM, first compound 0.01 µM
[35] = second compound 1 µM, first compound 0.00316 µM
[36] = second compound 1 µM, first compound 0.01 µM
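Note: compound exposure lasted 7 days starting three days after spheroid seeding.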
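Throughout, for viability, T/C: 100% = DMSO vehicle control wells with viability set relative to vehicle.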

C=CC(=O)N1CCN(c2nc(=O)n(-c3c(C)ccnc3C(C)C)c3nc(-c4c(O)cccc4F)c(F)cc23)C(C)C1 (stereo unspecified) + CNC(C)C(=O)NC1CN(S(=O)(=O)c2cccc(S(=O)(=O)N3CCC4CCC(C(=O)NC(c5ccccc5)c5ccccc5)N4C(=O)C(NC(=O)C(C)NC)C3)c2)CCC2CCC(C(=O)NC(c3ccccc3)c3ccccc3)N2C1=O
> 10000 nM: IC50 (second compound 0.00316 µM) | IC50 (second compound 0.01 µM) | IC50 (second compound 0.0316 µM) | IC50 (second compound 0.1 µM) | IC50 (second compound 0.316 µM) | IC50 (second compound 1 µM)
inactive: viability, T/C [1] 67.7% | viability, T/C [2] 59.1% | viability, T/C [3] 61.1% | viability, T/C [4] 57.4% | viability, T/C (second compound 0.00316 µM, first compound 3.16 µM) 66.1% | viability, T/C (second compound 0.00316 µM, first compound 10 µM) 60.2% | viability, T/C [5] 66.5% | viability, T/C [6] 70.6% | viability, T/C [7] 56.9% | viability, T/C [8] 69.8% | viability, T/C (second compound 0.01 µM, first compound 3.16 µM) 55.9% | viability, T/C (second compound 0.01 µM, first compound 10 µM) 70.3% | viability, T/C [9] 83.4% | viability, T/C [10] 67.7% | viability, T/C [11] 62.4% | viability, T/C [12] 60.6% | viability, T/C (second compound 0.0316 µM, first compound 3.16 µM) 62% | viability, T/C (second compound 0.0316 µM, first compound 10 µM) 67.2% | viability, T/C [13] 76.3% | viability, T/C [14] 60.5% | viability, T/C [15] 66.7% | viability, T/C [16] 58.8% | viability, T/C (second compound 0.1 µM, first compound 3.16 µM) 63.9% | viability, T/C (second compound 0.1 µM, first compound 10 µM) 61.3% | viability, T/C [17] 64.3% | viability, T/C [18] 65.8% | viability, T/C [19] 56.9% | viability, T/C [20] 54.9% | viability, T/C (second compound 0.316 µM, first compound 3.16 µM) 63.2% | viability, T/C (second compound 0.316 µM, first compound 10 µM) 64.3% | viability, T/C [21] 60.1% | viability, T/C [22] 61.1% | viability, T/C [23] 57.9% | viability, T/C [24] 60.3% | viability, T/C (second compound 1 µM, first compound 3.16 µM) 59% | viability, T/C (second compound 1 µM, first compound 10 µM) 56.6%

COc1c(OCCCN2CCOCC2)ccc2c3n(c(=NC(=O)c4cnc(N)nc4)nc12)CCN3 + CNC(C)C(=O)NC1CN(S(=O)(=O)c2cccc(S(=O)(=O)N3CCC4CCC(C(=O)NC(c5ccccc5)c5ccccc5)N4C(=O)C(NC(=O)C(C)NC)C3)c2)CCC2CCC(C(=O)NC(c3ccccc3)c3ccccc3)N2C1=O
102 nM: IC50 (second compound 0.316 µM)
99.2 nM: IC50 (second compound 0.01 µM)
92.6 nM: IC50 (second compound 0.0316 µM)
78.4 nM: IC50 (second compound 0.1 µM)
70.5 nM: IC50 (second compound 1 µM)
129 nM: IC50 (second compound 0.00316 µM)
inactive: viability, T/C [25] 97.2% | viability, T/C [26] 81.3% | viability, T/C [1] 69.5% | viability, T/C [2] 54.6% | viability, T/C [3] 36.9% | viability, T/C [4] 32.4% | viability, T/C [27] 91.6% | viability, T/C [28] 88.9% | viability, T/C [5] 60.1% | viability, T/C [6] 52.8% | viability, T/C [7] 36.8% | viability, T/C [8] 26% | viability, T/C [29] 94.7% | viability, T/C [30] 84.1% | viability, T/C [9] 66.4% | viability, T/C [10] 48.6% | viability, T/C [11] 37.6% | viability, T/C [12] 31.3% | viability, T/C [31] 89.5% | viability, T/C [32] 80.1% | viability, T/C [13] 62.9% | viability, T/C [14] 49.3% | viability, T/C [15] 29.9% | viability, T/C [16] 29.4% | viability, T/C [33] 84.9% | viability, T/C [34] 85.4% | viability, T/C [17] 73.3% | viability, T/C [18] 49.7% | viability, T/C [19] 36.8% | viability, T/C [20] 30.3% | viability, T/C [35] 85.2% | viability, T/C [36] 76.3% | viability, T/C [21] 60.5% | viability, T/C [22] 43.4% | viability, T/C [23] 35.8% | viability, T/C [24] 24.3%

NC1CCC(NC2CC2c2ccccc2)CC1 (stereo unspecified) + CNC(C)C(=O)NC1CN(S(=O)(=O)c2cccc(S(=O)(=O)N3CCC4CCC(C(=O)NC(c5ccccc5)c5ccccc5)N4C(=O)C(NC(=O)C(C)NC)C3)c2)CCC2CCC(C(=O)NC(c3ccccc3)c3ccccc3)N2C1=O
inactive: viability, T/C (second compound 0.00316 µM, first compound 0.000316 µM) 96.2% | viability, T/C (second compound 0.00316 µM, first compound 0.001 µM) 91.7% | viability, T/C [25] 104% | viability, T/C [26] 97% | viability, T/C [1] 97.6% | viability, T/C [2] 94.2% | viability, T/C (second compound 0.01 µM, first compound 0.000316 µM) 97.6% | viability, T/C (second compound 0.01 µM, first compound 0.001 µM) 86.7% | viability, T/C [27] 95.9% | viability, T/C [28] 101% | viability, T/C [5] 99.3% | viability, T/C [6] 90.5% | viability, T/C (second compound 0.0316 µM, first compound 0.000316 µM) 106% | viability, T/C (second compound 0.0316 µM, first compound 0.001 µM) 94.9% | viability, T/C [29] 91.5% | viability, T/C [30] 99.3% | viability, T/C [9] 97.2% | viability, T/C [10] 97.1% | viability, T/C (second compound 0.1 µM, first compound 0.000316 µM) 95% | viability, T/C (second compound 0.1 µM, first compound 0.001 µM) 88.6% | viability, T/C [31] 87.6% | viability, T/C [32] 85.3% | viability, T/C [13] 96.1% | viability, T/C [14] 96.7% | viability, T/C (second compound 0.316 µM, first compound 0.000316 µM) 109% | viability, T/C (second compound 0.316 µM, first compound 0.001 µM) 92% | viability, T/C [33] 88.7% | viability, T/C [34] 97.5% | viability, T/C [17] 95.9% | viability, T/C [18] 91.2% | viability, T/C (second compound 1 µM, first compound 0.000316 µM) 93.5% | viability, T/C (second compound 1 µM, first compound 0.001 µM) 80.2% | viability, T/C [35] 87% | viability, T/C [36] 87.3% | viability, T/C [21] 109% | viability, T/C [22] 85.2%
> 100 nM: IC50 (second compound 0.00316 µM) | IC50 (second compound 0.01 µM) | IC50 (second compound 0.0316 µM) | IC50 (second compound 0.1 µM) | IC50 (second compound 0.316 µM) | IC50 (second compound 1 µM)
